Source: PubChem BioAssay (NCI)
Several values for one entry are separate records, joined by “and”; a condition that tells them apart may be missing. Identical values can stand only once.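 Step 1: Grow cells in 96-well plates. Step 2: Expose to compound for 48 hours at 5 concentrations. Step 3: Interpolate endpoints linearly; if unreached, use highest concentration. The concentration for 50% growth inhibition is given as GI50. At the TGI there is no net growth.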

Tested on: CCRF-CEM leukemia
Assay: inhibition of tumour cell growth, NCI panel, 48 h

Row | Compound | TGI [µM] | GI50 [µM]
1 | OCC(O)CNc1ccnc2cc(Cl)ccc12 (stereo not drawn) | > 100 | –
2 | Cc1cccc(C(C)C)c1NC(=O)C(=O)C(C(=O)c1ccccc1F)C1OC(=O)c2ccccc21 (stereo not drawn) | 41 | –
3 | Cc1cccc(C)c1NC(=O)C(=O)CC(=O)c1cccc([N+](=O)[O-])c1 | > 100 | –
4 | CC1=C(c2cc(C(=O)Nc3ccc(Cl)cc3)nc(=S)[nH]2)Sc2ccccc2N1 | > 100 | –
5 | O=C(O)CN(c1ccccc1)S(=O)(=O)c1ccc([N+](=O)[O-])cc1 | > 100 | –
6 | [F][Sn]([F])([c]1ccccc1)[c]1ccccc1 | 3.82 | 0.688
7 | N#CC(C(=O)CCC(=O)Nc1cccc(C(F)(F)F)c1)c1ccc(Cl)cc1 (stereo not drawn) | > 100 | –
8 | Cc1cc(C(C)(C)C)cc(Cc2cc(C(C)(C)C)cc(Cc3cc(C(C)(C)C)cc(C)c3O)c2O)c1O | 9.04 | –
9 | COC(=O)/C(=C\c1ccc(N(CCC#N)CCC#N)cc1)NC(=O)c1cc([N+](=O)[O-])ccc1Cl | > 100 | –
10 | C/C(CCn1[nH]c(=O)ccc1=O)=N\OCCCc1ccccc1 | > 100 | –
11 | COC(=O)c1cccc2cccc(C(=O)Nc3ccc(Cl)cc3)c12 | > 67.1 | –
12 | N.N.NCCCCCCCCCN.O=C([O-])CC(=O)[O-].O=C([O-])CC(=O)[O-].[Pt+4].[Pt+4] | > 100 | 21.1
13 | CC(C(=O)n1c2ccccc2c2ccccc21)N(c1ccccc1)c1ccccc1 (stereo not drawn) | 4.02 | –
14 | CCOC(=O)Cn1c(=O)n(C)c(=O)c2c1ncn2Cc1ccccc1 | > 100 | –
15 | CCCCc1c2c(nc3c1CCC/C3=C\c1ccccc1)/C(=C/c1ccccc1)CCC2 | > 100 | –
16 | CC(C)(C)OC(=O)N1N=NC2C1C1CC(OCc3ccccc3)(OCc3ccccc3)C2O1 (stereo not drawn) | 63.5 | –
17 | CC(O)CC(O)(C(F)(F)F)C(F)(F)F (stereo not drawn) | > 10 | –
18 | CC1=CC(=O)C(C(O)(C(F)(F)F)C(F)(F)F)C(C)(C)C1 (stereo not drawn) | > 10 | –

Row | Compound | TGI [µM] | GI50 [µM]
19 | O=C1C(=O)N(c2cc(Cl)ccc2Cl)C(=O)C(=O)C1c1nc2ccccc2o1 | > 100 | –
20 | Cc1ncc([N+](=O)[O-])n1CCNS(=O)(=O)CCCn1ncnc1[N+](=O)[O-] | > 100 | –
21 | CC1=C(C(=O)Nc2ccccc2)C(c2ccc(C3C(C(=O)Nc4ccccc4)=C(C)NC(C)=C3C(=O)Nc3ccccc3)cc2)C(C(=O)Nc2ccccc2)=C(C)N1 | 12 | –
22 | O=C(O)C12CC3(C(=O)O)CC(C(=O)O)(CC(C(=O)O)(C1)C3=O)C2=O | > 100 | –
23 | O=c1c2ccccc2nc(-c2ccccc2)n1NC(=S)Nc1ccccc1 | > 100 | –
24 | CCOC(=O)/C(=C/c1cccc(C#N)c1)N(CC)CC | > 100 | –
25 | O=S1(=O)OCCOS(=O)(=O)C1Cl | > 100 | –
26 | COc1cc(C2C(C(=O)Nc3cc(F)c(F)cc3F)=C(C)NC(C)=C2C(=O)Nc2cc(F)c(F)cc2F)ccc1O | 45.6 | –
27 | O=c1nc(-c2ccccc2)cc(-c2ccccc2O)[nH]1 | > 100 | –
28 | Oc1ccc(Br)cc1C=Nc1ccc(N=Cc2cc(Br)ccc2O)cc1 | > 100 | –
29 | CCOc1ccccc1NC(=O)C(=O)Cc1nc2ccccc2s1 | > 100 | –
30 | C=CCn1c2c(sc1=S)C(S)N=CN2 (stereo not drawn) | > 100 | –
31 | Cc1cccc(N=C2NC(=O)C(CC(=O)Nc3cccc(C)c3C)S2)c1 (stereo not drawn) | > 100 | –
32 | CN(C)CCSc1nccc(-c2cc3ccccc3s2)n1 | 59.4 | –
33 | O=C(O)CSc1n[nH]c(Cc2ccccc2)n1 | > 100 | –
34 | O=[N+]([O-])c1ccc(CSCc2ccc(Cl)cc2)cc1 | 38.7 | –
35 | CCOc1ccccc1NC(=O)C(C#N)C1=C(Cl)C(=O)c2ccccc2C1=O (stereo not drawn) | – | 3.15

Tested on: UACC-62 melanoma
Assay: inhibition of tumour cell growth, NCI panel, 48 h

Row | Compound | TGI | GI50 [µM]
36 | Nc1ccc2[nH]cc(CCC(=O)O)c2c1 | > 100 µM | –
37 | OCC(O)CNc1ccnc2cc(Cl)ccc12 (stereo not drawn) | > 100 µM | –
38 | Cc1cccc(C(C)C)c1NC(=O)C(=O)C(C(=O)c1ccccc1F)C1OC(=O)c2ccccc21 (stereo not drawn) | 22.4 µM | –
39 | Cc1ccc(Nc2nnc(-c3ccc4c(c3)OCO4)o2)c(C)c1 | > 100 µM | –
40 | Cc1cccc(C)c1NC(=O)C(=O)CC(=O)c1cccc([N+](=O)[O-])c1 | > 100 µM | –
41 | CC1=C(c2cc(C(=O)Nc3ccc(Cl)cc3)nc(=S)[nH]2)Sc2ccccc2N1 | > 100 µM | –
42 | O=C(O)CN(c1ccccc1)S(=O)(=O)c1ccc([N+](=O)[O-])cc1 | > 100 µM | –
43 | CC1=C(C(=O)NNS(=O)(=O)c2ccc(C)cc2)CC(C(=O)NNS(=O)(=O)c2ccc(C)cc2)=C(C)N1 | 47.2 µM | –
44 | [F][Sn]([F])([c]1ccccc1)[c]1ccccc1 | 5.15 µM | 1.77
45 | N#CC(C(=O)CCC(=O)Nc1cccc(C(F)(F)F)c1)c1ccc(Cl)cc1 (stereo not drawn) | > 100 µM | –
46 | Cc1cc(C(C)(C)C)cc(Cc2cc(C(C)(C)C)cc(Cc3cc(C(C)(C)C)cc(C)c3O)c2O)c1O | 18.9 µM | –
47 | COC(=O)/C(=C\c1ccc(N(CCC#N)CCC#N)cc1)NC(=O)c1cc([N+](=O)[O-])ccc1Cl | > 100 µM | –
48 | COC1=C(Br)C(=O)c2nc(C)ccc2C1=O | 33.2 µM | –
49 | C/C(CCn1[nH]c(=O)ccc1=O)=N\OCCCc1ccccc1 | > 100 µM | –
50 | N.N.NCCCCCCCCCN.O=C([O-])CC(=O)[O-].O=C([O-])CC(=O)[O-].[Pt+4].[Pt+4] | > 100 µM | 23.1
51 | CCN(CC)c1cc2oc3cc(N)cc(=N)c-3nc2cc1C | 5.94 µM | 2.06
52 | CC(=O)OC1C2CCC1C1C2C2(Cl)C(Cl)=C(Cl)C1(Cl)C2(Cl)Cl (stereo not drawn) | 27 µM | –
53 | CC(C(=O)n1c2ccccc2c2ccccc21)N(c1ccccc1)c1ccccc1 (stereo not drawn) | 31.7 µM | –
54 | CCOC(=O)Cn1c(=O)n(C)c(=O)c2c1ncn2Cc1ccccc1 | > 100 µM | –
55 | CCCCc1c2c(nc3c1CCC/C3=C\c1ccccc1)/C(=C/c1ccccc1)CCC2 | > 100 µM | –
56 | CC(C)(C)OC(=O)N1N=NC2C1C1CC(OCc3ccccc3)(OCc3ccccc3)C2O1 (stereo not drawn) | > 100 µM | –

Row | Compound | TGI | GI50 [µM]
57 | CC(O)CC(O)(C(F)(F)F)C(F)(F)F (stereo not drawn) | > 10 µM | –
58 | O=C1CSC(c2ccc(-c3nc4ccccc4s3)cc2)=N1 | 45.2 µM | 18
59 | CC1=CC(=O)C(C(O)(C(F)(F)F)C(F)(F)F)C(C)(C)C1 (stereo not drawn) | > 10 µM | –
60 | O=C1C(=O)N(c2cc(Cl)ccc2Cl)C(=O)C(=O)C1c1nc2ccccc2o1 | > 100 µM | –
61 | Cc1ncc([N+](=O)[O-])n1CCNS(=O)(=O)CCCn1ncnc1[N+](=O)[O-] | > 100 µM | –
62 | CC1=C(C(=O)Nc2ccccc2)C(c2ccc(C3C(C(=O)Nc4ccccc4)=C(C)NC(C)=C3C(=O)Nc3ccccc3)cc2)C(C(=O)Nc2ccccc2)=C(C)N1 | 4.09 µM | –
63 | O=C(O)C12CC3(C(=O)O)CC(C(=O)O)(CC(C(=O)O)(C1)C3=O)C2=O | > 100 µM | –
64 | CCC(=O)Nc1ccc(N=NN(C)C)cc1 | > 100 µM | –
65 | O=c1c2ccccc2nc(-c2ccccc2)n1NC(=S)Nc1ccccc1 | > 100 µM | –
66 | CCOC(=O)/C(=C/c1cccc(C#N)c1)N(CC)CC | > 100 µM | –
67 | O=S1(=O)OCCOS(=O)(=O)C1Cl | > 100 µM | –
68 | O=c1nc(-c2ccccc2)cc(-c2ccccc2O)[nH]1 | > 100 µM | –
69 | CCOc1ccccc1NC(=O)C(=O)Cc1nc2ccccc2s1 | > 100 µM | –
70 | CO/N=C(/C)c1cccc(Nc2cc(-c3ccccc3)nc3ccc(OC)cc23)c1 | 17.7 µM | 4.33
71 | C=CCn1c2c(sc1=S)C(S)N=CN2 (stereo not drawn) | > 100 µM | –
72 | Cc1cccc(N=C2NC(=O)C(CC(=O)Nc3cccc(C)c3C)S2)c1 (stereo not drawn) | > 100 µM | –
73 | CN(C)CCSc1nccc(-c2cc3ccccc3s2)n1 | 40.4 µM | –
74 | O=C(O)CSc1n[nH]c(Cc2ccccc2)n1 | > 100 µM | –
75 | O=[N+]([O-])c1ccc(CSCc2ccc(Cl)cc2)cc1 | > 100 µM | –
76 | CCOc1ccccc1NC(=O)C(C#N)C1=C(Cl)C(=O)c2ccccc2C1=O (stereo not drawn) | 3.24 µM and 3.36 µM | –

Tested on: NCI/ADR-RES ovarian
Assay: inhibition of tumour cell growth, NCI panel, 48 h

Row | Compound | GI50 [µM] | TGI [µM]
77 | C=C1CC[C@@H](C(C)C)C[C@@H]2[C@H]([C@H](O)C[C@]2(C)O)[C@@]2(C)CC[C@@H]1O2 | 16.7 | 33.2
78 | Nc1ccc2[nH]cc(CCC(=O)O)c2c1 | – | > 100
79 | Cc1ccc(Nc2nnc(-c3ccc4c(c3)OCO4)o2)c(C)c1 | – | > 100
80 | Clc1cc(Cl)cc(Nc2ccc3cc(OCCCN4CCOCC4)ccc3n2)c1 | 2.96 | > 100
81 | CCN(CC)c1cc2oc3cc(N)cc(=N)c-3nc2cc1C | 2.29 | > 100
82 | CC(O)CC(O)(C(F)(F)F)C(F)(F)F (stereo not drawn) | – | > 10
83 | O=C1CSC(c2ccc(-c3nc4ccccc4s3)cc2)=N1 | 50.5 | > 100
84 | CC1=CC(=O)C(C(O)(C(F)(F)F)C(F)(F)F)C(C)(C)C1 (stereo not drawn) | – | > 10
85 | Cc1ncc([N+](=O)[O-])n1CCNS(=O)(=O)CCCn1ncnc1[N+](=O)[O-] | – | > 100
86 | O=C(O)C12CC3(C(=O)O)CC(C(=O)O)(CC(C(=O)O)(C1)C3=O)C2=O | – | > 100
87 | CCC(=O)Nc1ccc(N=NN(C)C)cc1 | – | > 100
88 | CO/N=C(/C)c1cccc(Nc2cc(-c3ccccc3)nc3ccc(OC)cc23)c1 | 4.7 | 24
89 | O=[N+]([O-])c1ccc(CSCc2ccc(Cl)cc2)cc1 | – | > 100

Tested on: HCC-2998 colon
Assay: inhibition of tumour cell growth, NCI panel, 48 h

Row | Compound | GI50 [µM] | TGI [µM]
90 | C=C1CC[C@@H](C(C)C)C[C@@H]2[C@H]([C@H](O)C[C@]2(C)O)[C@@]2(C)CC[C@@H]1O2 | 13.9 | 26.9
